The source of these data is ChEMBL document CHEMBL1201862, “PubChem BioAssay data set” (2004).

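All cell lines were grown in 96-well plates and treated with compound for 48 hours. Here, GI50 denotes the concentration required for 50% inhibition of growth.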 Active and inactive are the calls of the source. Rule as the data show it: active = GI50 up to about 1.1 µM and inactive = higher. Peptide text beside a SMILES is read from it. * marks the point of attachment. Cbz = O=C(OCc1ccccc1)*; OBn = c1ccc(CO*)cc1

Among the test systems are SW-620; UACC-257; 786-0; SF-268; RPMI-8226; SNB-75; SK-MEL-28; KM12; MDA-MB-435; SNB-19; OVCAR-8; Hs-578T; TK-10; OVCAR-5; M14; MDA-N; HCC 2998; T47D; COLO 205; MCF7.
Test in all cases: NCI tumour cell line growth inhibition, 48 h

On to `O=C1[C@H](c2ccccc2)C2c3ccccc3CCN12` (stereo partly specified), for which the GI50 was > 10 µM (inactive) with SW-620; > 10 µM (inactive) with UACC-257; > 10 µM (inactive) with 786-0; > 10 µM (inactive) in the test on SF-268; > 10 µM (inactive) in the test with RPMI-8226; > 100 µM (inactive) in the test on SNB-75. For the same compound, the GI50 in the test with SK-MEL-28, with KM12, in the test on MDA-MB-435, in the test on SNB-19, in the test on OVCAR-8 and in the test with Hs-578T was > 10 µM (inactive) throughout. Besides, the GI50 with TK-10, with OVCAR-5, in the test with M14, in the test with MDA-N, in the test on HCC 2998 and with T47D was > 10 µM (inactive) each time. Also, the GI50 in the test on COLO 205 and in the test on MCF7 was > 10 µM (inactive) throughout.
`CCC1C(=O)C(O)[C@H]2[C@@H]3C(O)CC4=CC(=O)CC[C@]4(C)[C@H]3CC[C@]12C` (stereo partly specified): the GI50 with SW-620, in the test on UACC-257, in the test with 786-0, in the test with SF-268, with RPMI-8226 and in the test with SNB-75 was > 50 µM (inactive) in each case. Moreover, the GI50 in the test on SK-MEL-28, in the test with KM12, with MDA-MB-435, in the test on SNB-19, with OVCAR-8 and in the test on Hs-578T was > 50 µM (inactive) throughout. Moreover, the GI50 in the test with TK-10, in the test on OVCAR-5, in the test with M14, in the test on MDA-N, in the test on HCC 2998 and in the test on T47D was > 50 µM (inactive) in each case. For the same compound, the GI50 in the test with COLO 205 and in the test with MCF7 was > 50 µM (inactive) in each case.
As for `COc1ccc(N2CCOCC2)cc1`, the GI50 in the test on SW-620, in the test with UACC-257, in the test with 786-0, in the test on SF-268, in the test with RPMI-8226 and in the test on SNB-75 was > 100 µM (inactive) throughout. Further, the GI50 in the test on SK-MEL-28, in the test on KM12, with MDA-MB-435, in the test with SNB-19, in the test on OVCAR-8 and with Hs-578T was > 100 µM (inactive) throughout. Moreover, the GI50 with TK-10, in the test on OVCAR-5, with M14, with MDA-N, in the test on HCC 2998 and in the test on T47D was > 100 µM (inactive) each time. Also, the GI50 in the test on COLO 205 and in the test with MCF7 was > 100 µM (inactive) throughout.
Turning to `CCN(CC)c1ccc2cc(C(=O)Nc3ccc(C)cc3)c(=N)oc2c1`, the GI50 with SW-620, in the test with UACC-257, in the test with 786-0, in the test on SF-268, with RPMI-8226 and with SNB-75 was > 100 µM (inactive) each time. Besides, the GI50 in the test with SK-MEL-28, in the test with KM12, with MDA-MB-435, in the test on SNB-19, with OVCAR-8 and with Hs-578T was > 100 µM (inactive) in each case. Besides, the GI50 in the test with OVCAR-5, with M14, with MDA-N, in the test with HCC 2998, with T47D and in the test with COLO 205 was > 100 µM (inactive) each time. Further, in the test with MCF7, the GI50 is > 100 µM (inactive).
In the case of `Fc1ccc(/N=C/C=C/Nc2ccc(F)cc2)cc1`, the GI50 was 3.32 µM (inactive) with SW-620; 13.5 µM (inactive) in the test with UACC-257; 4.3 µM (inactive) in the test with 786-0; 13.4 µM (inactive) with SF-268; 12.4 µM (inactive) in the test on RPMI-8226; 15 µM (inactive) in the test on SNB-75. Also, the GI50 in the test on SK-MEL-28 was 7.5 µM (inactive); in the test on KM12 it was 3.31 µM (inactive); in the test on MDA-MB-435 it was 5.3 µM (inactive); in the test on SNB-19, 13.3 µM (inactive); in the test with OVCAR-8, 12.9 µM (inactive); in the test with Hs-578T it was 19.9 µM (inactive). Also, the GI50 was 12.1 µM (inactive) in the test on OVCAR-5; 0.137 µM (active) in the test with M14; 2.75 µM (inactive) in the test on MDA-N; 3.05 µM (inactive) in the test on HCC 2998; 6.37 µM (inactive) in the test with T47D; 1.55 µM (inactive) in the test with COLO 205. Besides, the GI50 in the test on MCF7 is 11.7 µM (inactive).
`O=C1/C(=C/c2ccccc2[N+](=O)[O-])N=C(c2ccccc2)N1c1nc2ccccc2s1`: the GI50 with SW-620 was 34.4 µM (inactive); in the test with UACC-257, 65 µM (inactive); in the test on 786-0, 21.7 µM (inactive); with SF-268, 20.5 µM (inactive); in the test with RPMI-8226 it was 9.82 µM (inactive); in the test with SNB-75, 27.3 µM (inactive). In addition, the GI50 is 31.3 µM (inactive) with SK-MEL-28; 17.9 µM (inactive) with KM12; 19.4 µM (inactive) in the test with MDA-MB-435; 42.6 µM (inactive) with SNB-19; 17.4 µM (inactive) in the test on OVCAR-8; 19.1 µM (inactive) in the test with Hs-578T. The GI50 in the test with TK-10 was 49.2 µM (inactive); with OVCAR-5 it was 73.6 µM (inactive); in the test on M14 it was 42.7 µM (inactive); with MDA-N, 26.1 µM (inactive); with HCC 2998 it was 17.8 µM (inactive); with T47D, 21.7 µM (inactive). Besides, the GI50 with MCF7 was 13 µM (inactive).
For `COC(=O)CNC(=O)C(C)NC(=O)C(CC(=O)OCc1ccccc1)NC(=O)OCc1ccccc1` (stereo not drawn) (Cbz-Asp(OBn)-Ala-Gly-OMe; configuration not given here), the GI50 is 35.7 µM (inactive) with SW-620; 32.4 µM (inactive) in the test with UACC-257; > 100 µM (inactive) in the test with 786-0; 39 µM (inactive) in the test with RPMI-8226; 72.1 µM (inactive) in the test with SNB-75; 80.2 µM (inactive) with SK-MEL-28. The GI50 with KM12 is 73.6 µM (inactive); in the test with MDA-MB-435, 37.1 µM (inactive); with SNB-19, 57.3 µM (inactive); with OVCAR-8 it was 81.8 µM (inactive); in the test with Hs-578T it was 43.9 µM (inactive); in the test with TK-10, 20.5 µM (inactive). Moreover, the GI50 was 39.4 µM (inactive) with OVCAR-5; > 100 µM (inactive) with M14; 53.6 µM (inactive) with MDA-N; 32.9 µM (inactive) in the test on HCC 2998; 21.6 µM (inactive) in the test with T47D; 38.4 µM (inactive) in the test on COLO 205. The GI50 in the test on MCF7 is 55.7 µM (inactive).
